Measured values: ChEMBL document CHEMBL1201862, “PubChem BioAssay data set” (2004)
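Assay format: 96-well plates, 48-hour exposure. GI50: concentration for 50% inhibition of growth.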 Activity calls are given as the source filed them. Cut-off read from the data, not from the text of the source: active = GI50 up to about 1.1 µM and inactive = higher.

Assays:
Assay in all cases: inhibition of tumour cell growth, NCI panel, 48 h
OVCAR-4 = system: OVCAR-4
SR = system: SR
HCT-15 = system: HCT-15
SF-295 = system: SF-295
UACC-257 = system: UACC-257
HOP-62 = system: HOP-62
UO-31 = system: UO-31
SK-OV-3 = system: SK-OV-3
NCI-H23 = system: NCI-H23
RXF 393 = system: RXF 393
UACC-62 = system: UACC-62
NCI-H226 = system: NCI-H226
RPMI-8226 = system: RPMI-8226
NCI-H460 = system: NCI-H460
MCF7 = system: MCF7
OVCAR-8 = system: OVCAR-8
SF-268 = system: SF-268
MDA-MB-435 = system: MDA-MB-435
LOX IMVI = system: LOX IMVI
Hs-578T = system: Hs-578T

Structure (SMILES)	GI50 (OVCAR-4)	GI50 (SR)	GI50 (HCT-15) [µM]	GI50 (SF-295)	GI50 (UACC-257)	GI50 (HOP-62)	GI50 (UO-31)	GI50 (SK-OV-3)	GI50 (NCI-H23)	GI50 (RXF 393)	GI50 (UACC-62)	GI50 (NCI-H226)	GI50 (RPMI-8226)	GI50 (NCI-H460)	GI50 (MCF7)	GI50 (OVCAR-8)	GI50 (SF-268)	GI50 (MDA-MB-435)	GI50 (LOX IMVI)	GI50 (Hs-578T)
Nc1c(C(=O)Nc2ccc([As](=O)(O)O)cc2)cnc2nnnn12	> 100 µM (inactive)	> 100 µM (inactive)	> 100	> 100 µM (inactive)	> 100 µM (inactive)	> 100 µM (inactive)	> 100 µM (inactive)	> 100 µM (inactive)	> 100 µM (inactive)	> 100 µM (inactive)	> 100 µM (inactive)	> 100 µM (inactive)	> 100 µM (inactive)	> 100 µM (inactive)	> 100 µM (inactive)	> 100 µM (inactive)	> 100 µM (inactive)	> 100 µM (inactive)	> 100 µM (inactive)	–
N/C(=N\c1ccc(Cl)cc1)NS(=O)(=O)c1c(C(F)(F)F)cccc1C(F)(F)F	17.5 µM (inactive)	> 100 µM (inactive)	17	7.85 µM (inactive)	18.6 µM (inactive)	24 µM (inactive)	2.29 µM (inactive)	35.2 µM (inactive)	5.58 µM (inactive)	45.8 µM (inactive)	8.34 µM (inactive)	27.6 µM (inactive)	> 100 µM (inactive)	14.5 µM (inactive)	15.6 µM (inactive)	20.7 µM (inactive)	23.3 µM (inactive)	–	16.3 µM (inactive)	17.9 µM (inactive)
CCOc1ccccc1NC(=O)CC(C(=O)OC)C(=O)C(=O)OC (configuration not stated)	> 100 µM (inactive)	> 100 µM (inactive)	> 100	> 100 µM (inactive)	> 100 µM (inactive)	> 100 µM (inactive)	> 100 µM (inactive)	> 100 µM (inactive)	> 100 µM (inactive)	> 100 µM (inactive)	> 100 µM (inactive)	> 100 µM (inactive)	> 100 µM (inactive)	> 100 µM (inactive)	–	> 100 µM (inactive)	> 100 µM (inactive)	–	> 100 µM (inactive)	–
O=S(=O)(SCc1ccccc1)C(c1ccccc1)c1ccccc1	48.9 µM (inactive)	15.2 µM (inactive)	30.5	44.1 µM (inactive)	32.9 µM (inactive)	> 100 µM (inactive)	64.6 µM (inactive)	> 100 µM (inactive)	26.5 µM (inactive)	21.9 µM (inactive)	27.5 µM (inactive)	22.5 µM (inactive)	25 µM (inactive)	37 µM (inactive)	–	19.8 µM (inactive)	57.1 µM (inactive)	–	30.4 µM (inactive)	–
O=C(CC(=O)N1N=C(N2c3ccccc3Sc3ccccc32)CC1c1ccccc1)Nc1ccccc1Cl (configuration not stated)	> 100 µM (inactive)	–	> 100	> 100 µM (inactive)	> 100 µM (inactive)	> 100 µM (inactive)	> 100 µM (inactive)	–	> 100 µM (inactive)	> 100 µM (inactive)	> 100 µM (inactive)	> 100 µM (inactive)	> 100 µM (inactive)	> 100 µM (inactive)	–	> 100 µM (inactive)	> 100 µM (inactive)	> 100 µM (inactive)	–	> 100 µM (inactive)
CN1C(=O)[C@](C)(Cc2ccc(F)cc2)N(C(=O)OC(C)(C)C)[C@@H]1C(C)(C)C	43.1 µM (inactive)	21.2 µM (inactive)	37.8	20.3 µM (inactive)	30.5 µM (inactive)	40.7 µM (inactive)	33.6 µM (inactive)	43.9 µM (inactive)	33.1 µM (inactive)	21.3 µM (inactive)	32 µM (inactive)	23.6 µM (inactive)	22.4 µM (inactive)	31.5 µM (inactive)	22.8 µM (inactive)	28.8 µM (inactive)	55.3 µM (inactive)	39.3 µM (inactive)	21.6 µM (inactive)	–
COc1ccc2c(c1)C/C(=C\c1cccc3ccccc13)C2=O	67.9 µM (inactive)	4.65 µM (inactive)	4.7	–	–	–	44.5 µM (inactive)	16.8 µM (inactive)	2.84 µM (inactive)	0.0902 µM (active)	12.5 µM (inactive)	10.5 µM (inactive)	25.3 µM (inactive)	4.99 µM (inactive)	5.19 µM (inactive)	21.7 µM (inactive)	18.4 µM (inactive)	–	5.07 µM (inactive)	84.9 µM (inactive)
COc1ccc(N2C(=O)C3c4[nH]c5ccccc5c4C4CCCCC4C3C2=O)cc1 (configuration not stated)	5.4 µM (inactive)	11.7 µM (inactive)	> 100	11.3 µM (inactive)	27.8 µM (inactive)	15 µM (inactive)	26.4 µM (inactive)	19.7 µM (inactive)	25.8 µM (inactive)	20.8 µM (inactive)	10.3 µM (inactive)	27.4 µM (inactive)	32.3 µM (inactive)	19.5 µM (inactive)	–	11 µM (inactive)	8.61 µM (inactive)	–	20 µM (inactive)	–
C=C1C(=O)OC2CC(C)C3C=CC(=O)C3CC12 (configuration not stated)	2.95 µM (inactive)	0.824 µM (active)	1.85	14.6 µM (inactive)	2.02 µM (inactive)	15.9 µM (inactive)	2.9 µM (inactive)	16.1 µM (inactive)	1.83 µM (inactive)	1.53 µM (inactive)	1.71 µM (inactive)	2.64 µM (inactive)	1.71 µM (inactive)	2.96 µM (inactive)	–	2.94 µM (inactive)	2.55 µM (inactive)	3.31 µM (inactive)	0.867 µM (active)	1.85 µM (inactive)
CCC(C)C1=C(O)[N+]2([O-])Oc3ccc(-c4c(O)c(O)c(-c5ccc(O)cc5)c(OC(C)=O)c4OC(C)=O)cc3OC2(C(C)CC)C(=O)N1O (configuration not stated)	> 50 µM (inactive)	> 50 µM (inactive)	> 50	> 50 µM (inactive)	> 50 µM (inactive)	–	> 50 µM (inactive)	> 50 µM (inactive)	> 50 µM (inactive)	> 50 µM (inactive)	> 50 µM (inactive)	> 50 µM (inactive)	> 50 µM (inactive)	> 50 µM (inactive)	> 50 µM (inactive)	> 50 µM (inactive)	> 50 µM (inactive)	16.8 µM (inactive)	17.6 µM (inactive)	–
COc1ccc(N2C(=O)c3cc([N+](=O)[O-])cnc3S2(=O)=O)cc1	> 100 µM (inactive)	> 100 µM (inactive)	> 100	> 100 µM (inactive)	–	> 100 µM (inactive)	> 100 µM (inactive)	> 100 µM (inactive)	> 100 µM (inactive)	> 100 µM (inactive)	> 100 µM (inactive)	> 100 µM (inactive)	> 100 µM (inactive)	> 100 µM (inactive)	–	> 100 µM (inactive)	> 100 µM (inactive)	> 100 µM (inactive)	> 100 µM (inactive)	> 100 µM (inactive)
CC1CC2(S(=O)(=O)c3ccccc3)ON1CC2S(=O)(=O)c1ccccc1 (configuration not stated)	> 100 µM (inactive)	> 100 µM (inactive)	> 100	> 100 µM (inactive)	> 100 µM (inactive)	> 100 µM (inactive)	> 100 µM (inactive)	> 100 µM (inactive)	> 100 µM (inactive)	> 100 µM (inactive)	> 100 µM (inactive)	> 100 µM (inactive)	> 100 µM (inactive)	> 100 µM (inactive)	–	> 100 µM (inactive)	> 100 µM (inactive)	–	> 100 µM (inactive)	–
O=C(CC/C(CC(=O)c1ccc(Br)cc1)=N\O)Nc1ccc(Cl)c(Cl)c1	64 µM (inactive)	40.3 µM (inactive)	86.7	> 100 µM (inactive)	44.4 µM (inactive)	> 100 µM (inactive)	> 100 µM (inactive)	> 100 µM (inactive)	> 100 µM (inactive)	29.2 µM (inactive)	27.2 µM (inactive)	> 100 µM (inactive)	46.1 µM (inactive)	> 100 µM (inactive)	–	> 100 µM (inactive)	> 100 µM (inactive)	–	> 100 µM (inactive)	–
Cc1ccc([S+]([O-])C[C@](NC(=O)OCc2ccccc2)(Sc2ccccc2)C(F)F)cc1 (some centres not stated)	13.2 µM (inactive)	10.8 µM (inactive)	17.1	16.8 µM (inactive)	15 µM (inactive)	35.8 µM (inactive)	6.56 µM (inactive)	16.7 µM (inactive)	17.7 µM (inactive)	21.7 µM (inactive)	14.8 µM (inactive)	12.9 µM (inactive)	10.4 µM (inactive)	17.9 µM (inactive)	–	19.1 µM (inactive)	16.9 µM (inactive)	29.7 µM (inactive)	4.16 µM (inactive)	23.9 µM (inactive)
CCCC(=O)c1c(NOC2OCC(OC(C)=O)C(OC(C)=O)C2OC(C)=O)nc(OC)n(C)c1=O (configuration not stated)	> 100 µM (inactive)	> 100 µM (inactive)	> 100	> 100 µM (inactive)	> 100 µM (inactive)	> 100 µM (inactive)	> 100 µM (inactive)	> 100 µM (inactive)	> 100 µM (inactive)	> 100 µM (inactive)	> 100 µM (inactive)	> 100 µM (inactive)	> 100 µM (inactive)	> 100 µM (inactive)	–	> 100 µM (inactive)	> 100 µM (inactive)	–	> 100 µM (inactive)	–
O=C(O)CC(O)(c1ccccc1C(=O)O)c1cccc2ccccc12 (configuration not stated)	> 100 µM (inactive)	> 100 µM (inactive)	> 100	> 100 µM (inactive)	> 100 µM (inactive)	> 100 µM (inactive)	> 100 µM (inactive)	> 100 µM (inactive)	> 100 µM (inactive)	> 100 µM (inactive)	> 100 µM (inactive)	> 100 µM (inactive)	> 100 µM (inactive)	> 100 µM (inactive)	–	> 100 µM (inactive)	> 100 µM (inactive)	–	> 100 µM (inactive)	–
